Experimental data taken from patent publication US20060009478A1, “Methods for the treatment of back pain” (priority 2003, published 2006).

Key:
[1] = system: patients with moderate to severe chronic pain due to osteoarthritis of the hip or knee; experiment: Pain control, 3-week osteoarthritis study; format: in vivo, human; conditions: ITT (N = 102 per active group), LOCF
Procedure: Pain Control was also assessed weekly at clinic visits. The patient was prompted with the question, “During the past week, how would you describe your pain control during the course of each day?” Responses were selected from: Pain was controlled for (1) a few hours or less each day; (2) several hours each day; (3) most of each day; and (4) throughout each day.
The global assessment, quality of analgesia, and pain control, recorded at the end of each week, were summarized in terms of category proportions.
For secondary analysis of data, pain intensity changes, SF-12, and WOMAC were analyzed with the ANOVA methods as described above. Within treatment arms, weeks were compared in pairwise fashion using paired-sample methods. The global assessments, quality of analgesia ratings, and pain control was analyzed at each week, globally and in pairwise fashion, using the Cocharan-Mantel-Haenszel row mean scores (CMH-RMS) test, using equally spaced scores.

[2] = system: patients with moderate to severe chronic low back pain; experiment: Short Opiate Withdrawal Scale (SOWS), low back pain study; conditions: for SOWS change from baseline, MAX / SOWS change from baseline, MEAN(SD) / SOWS change from baseline, MEDIAN / SOWS change from baseline, MIN / SOWS score, MAX / SOWS score, MEAN(SD) / SOWS score, MEDIAN / SOWS score, MIN / SOWS change from baseline, MAXIMUM / SOWS change from baseline, MINIMUM / SOWS score, MAXIMUM / SOWS score, MINIMUM: ITT
[3] = all patients, change from baseline to day 1
[4] = all patients, change from baseline to day 2
[5] = all patients, change from baseline to day 3
[6] = all patients, change from baseline to day 4
[7] = all patients, last dose date (baseline)
[8] = all patients, opioid withdrawal monitoring day 1
[9] = all patients, opioid withdrawal monitoring day 2
[10] = all patients, opioid withdrawal monitoring day 3
[11] = all patients, opioid withdrawal monitoring day 4
[12] = patients with <4 weeks of dosing, change from baseline to day 1
[13] = patients with <4 weeks of dosing, change from baseline to day 2
[14] = patients with <4 weeks of dosing, change from baseline to day 3
[15] = patients with <4 weeks of dosing, change from baseline to day 4
[16] = patients with <4 weeks of dosing, last dose date (baseline)
[17] = patients with <4 weeks of dosing, opioid withdrawal monitoring day 1
[18] = patients with <4 weeks of dosing, opioid withdrawal monitoring day 2
[19] = patients with <4 weeks of dosing, opioid withdrawal monitoring day 3
[20] = patients with <4 weeks of dosing, opioid withdrawal monitoring day 4
[21] = patients with ≧4 weeks of dosing, change from baseline to day 1
[22] = patients with ≧4 weeks of dosing, change from baseline to day 2
[23] = patients with ≧4 weeks of dosing, change from baseline to day 3
[24] = patients with ≧4 weeks of dosing, change from baseline to day 4
[25] = patients with ≧4 weeks of dosing, last dose date (baseline)
[26] = patients with ≧4 weeks of dosing, opioid withdrawal monitoring day 1
[27] = patients with ≧4 weeks of dosing, opioid withdrawal monitoring day 2
[28] = patients with ≧4 weeks of dosing, opioid withdrawal monitoring day 3
[29] = patients with ≧4 weeks of dosing, opioid withdrawal monitoring day 4

What does the source list for `COc1ccc2c3c1O[C@H]1C(=O)CC[C@@]4(O)[C@@H](C2)N(C)CC[C@]314` [OXY QID, oxycodone]?
Pain control Week 1: PAIN CONTROLLED A FEW HRS/LESS EACH DAY (1), number (%) of patients [1]: 42 (41.2%); Pain control Week 1: PAIN CONTROLLED MOST OF EACH DAY (3), number (%) of patients [1]: 17 (16.7%); Pain control Week 1: PAIN CONTROLLED SEVERAL HRS EACH DAY (2), number (%) of patients [1]: 29 (28.4%); Pain control Week 1: PAIN CONTROLLED THROUGHOUT EACH DAY (4), number (%) of patients [1]: 10 (9.8%); Pain control Week 2: PAIN CONTROLLED A FEW HRS/LESS EACH DAY (1), number (%) of patients [1]: 36 (35.3%); Pain control Week 2: PAIN CONTROLLED MOST OF EACH DAY (3), number (%) of patients [1]: 26 (25.5%); Pain control Week 2: PAIN CONTROLLED SEVERAL HRS EACH DAY (2), number (%) of patients [1]: 26 (25.5%); Pain control Week 2: PAIN CONTROLLED THROUGHOUT EACH DAY (4), number (%) of patients [1]: 10 (9.8%); Pain control Week 3: PAIN CONTROLLED A FEW HRS/LESS EACH DAY (1), number (%) of patients [1]: 35 (34.3%); Pain control Week 3: PAIN CONTROLLED MOST OF EACH DAY (3), number (%) of patients [1]: 27 (26.5%); Pain control Week 3: PAIN CONTROLLED THROUGHOUT EACH DAY (4), number (%) of patients [1]: 8 (7.8%); SOWS change from baseline, MAX [2, 3]: 1.9; SOWS change from baseline, MEAN(SD) [2, 3]: 0.3 (0.47); SOWS change from baseline, MEDIAN [2, 3]: 0.2; SOWS change from baseline, MIN [2, 3]: −0.7; SOWS change from baseline, MAX [2, 4]: 2.4; SOWS change from baseline, MEAN(SD) [2, 4]: 0.3 (0.53); SOWS change from baseline, MEDIAN [2, 4]: 0.2; SOWS change from baseline, MIN [2, 4]: −1.1; SOWS change from baseline, MAX [2, 5]: 1.7; SOWS change from baseline, MEAN(SD) [2, 5]: 0.2 (0.48); SOWS change from baseline, MEDIAN [2, 5]: 0.2; SOWS change from baseline, MIN [2, 5]: −1.1; SOWS change from baseline, MAX [2, 6]: 2.7; SOWS change from baseline, MEAN(SD) [2, 6]: 0.2 (0.54); SOWS change from baseline, MEDIAN [2, 6]: 0.1; SOWS change from baseline, MIN [2, 6]: −1.1; SOWS score, MAX [2, 7]: 1.5; SOWS score, MEAN(SD) [2, 7]: 0.3 (0.36); SOWS score, MEDIAN [2, 7]: 0.2; SOWS score, MIN [2, 7]: 0.0; SOWS score, MAX [2, 8]: 2.5; SOWS score, MEAN(SD) [2, 8]: 0.5 (0.52); SOWS score, MEDIAN [2, 8]: 0.4; SOWS score, MIN [2, 8]: 0.0; SOWS score, MAX [2, 9]: 2.5; SOWS score, MEAN(SD) [2, 9]: 0.5 (0.54); SOWS score, MEDIAN [2, 9]: 0.4; SOWS score, MIN [2, 9]: 0.0; SOWS score, MAX [2, 10]: 2.2; SOWS score, MEAN(SD) [2, 10]: 0.5 (0.53); SOWS score, MEDIAN [2, 10]: 0.4; SOWS score, MIN [2, 10]: 0.0; SOWS score, MAX [2, 11]: 2.7; SOWS score, MEAN(SD) [2, 11]: 0.4 (0.54); SOWS score, MEDIAN [2, 11]: 0.3; SOWS score, MIN [2, 11]: 0.0; SOWS change from baseline, MAX [2, 12]: 0.2; SOWS change from baseline, MEAN(SD) [2, 12]: 0.0 (0.16); SOWS change from baseline, MEDIAN [2, 12]: 0.0; SOWS change from baseline, MIN [2, 12]: −0.2; SOWS change from baseline, MAX [2, 13]: 1.3; SOWS change from baseline, MEAN(SD) [2, 13]: 0.2 (0.66); SOWS change from baseline, MEDIAN [2, 13]: 0.1; SOWS change from baseline, MIN [2, 13]: −0.5; SOWS change from baseline, MAX [2, 14]: 1.3; SOWS change from baseline, MEAN(SD) [2, 14]: 0.2 (0.67); SOWS change from baseline, MEDIAN [2, 14]: 0.0; SOWS change from baseline, MIN [2, 14]: −0.5; SOWS change from baseline, MAX [2, 15]: 0.8; SOWS change from baseline, MEAN(SD) [2, 15]: 0.2 (0.41); SOWS change from baseline, MEDIAN [2, 15]: 0.1; SOWS change from baseline, MIN [2, 15]: −0.1; SOWS score, MAX [2, 16]: 0.7; SOWS score, MEAN(SD) [2, 16]: 0.3 (0.29); SOWS score, MEDIAN [2, 16]: 0.2; SOWS score, MIN [2, 16]: 0.0; SOWS score, MAX [2, 17]: 0.9; SOWS score, MEAN(SD) [2, 17]: 0.2 (0.27); SOWS score, MEDIAN [2, 17]: 0.1; SOWS score, MIN [2, 17]: 0.0; SOWS score, MAX [2, 18]: 1.3; SOWS score, MEAN(SD) [2, 18]: 0.2 (0.38); SOWS score, MEDIAN [2, 18]: 0.0; SOWS score, MIN [2, 18]: 0.0; SOWS score, MAX [2, 19]: 1.3; SOWS score, MEAN(SD) [2, 19]: 0.2 (0.39); SOWS score, MEDIAN [2, 19]: 0.0; SOWS score, MIN [2, 19]: 0.0; SOWS score, MAX [2, 20]: 0.8; SOWS score, MEAN(SD) [2, 20]: 0.1 (0.26); SOWS score, MEDIAN [2, 20]: 0.0; SOWS score, MIN [2, 20]: 0.0; SOWS change from baseline, MAXIMUM [2, 21]: 1.9; SOWS change from baseline, MEAN(SD) [2, 21]: 0.3 (0.48); SOWS change from baseline, MEDIAN [2, 21]: 0.2; SOWS change from baseline, MINIMUM [2, 21]: −0.7; SOWS change from baseline, MAXIMUM [2, 22]: 2.4; SOWS change from baseline, MEAN(SD) [2, 22]: 0.3 (0.52); SOWS change from baseline, MEDIAN [2, 22]: 0.2; SOWS change from baseline, MINIMUM [2, 22]: −1.1; SOWS change from baseline, MAXIMUM [2, 23]: 1.7; SOWS change from baseline, MEAN(SD) [2, 23]: 0.3 (0.48); SOWS change from baseline, MEDIAN [2, 23]: 0.2; SOWS change from baseline, MINIMUM [2, 23]: −1.1; SOWS change from baseline, MAXIMUM [2, 24]: 2.7; SOWS change from baseline, MEAN(SD) [2, 24]: 0.2 (0.55); SOWS change from baseline, MEDIAN [2, 24]: 0.1; SOWS change from baseline, MINIMUM [2, 24]: −1.1; SOWS score, MAXIMUM [2, 25]: 1.5; SOWS score, MEAN(SD) [2, 25]: 0.3 (0.37); SOWS score, MEDIAN [2, 25]: 0.2; SOWS score, MINIMUM [2, 25]: 0.0; SOWS score, MAXIMUM [2, 26]: 2.5; SOWS score, MEAN(SD) [2, 26]: 0.5 (0.53); SOWS score, MEDIAN [2, 26]: 0.4; SOWS score, MINIMUM [2, 26]: 0.0; SOWS score, MAXIMUM [2, 27]: 2.5; SOWS score, MEAN(SD) [2, 27]: 0.6 (0.54); SOWS score, MEDIAN [2, 27]: 0.4; SOWS score, MINIMUM [2, 27]: 0.0; SOWS score, MAXIMUM [2, 28]: 2.2; SOWS score, MEAN(SD) [2, 28]: 0.6 (0.53); SOWS score, MEDIAN [2, 28]: 0.4; SOWS score, MINIMUM [2, 28]: 0.0; SOWS score, MAXIMUM [2, 29]: 2.7; SOWS score, MEAN(SD) [2, 29]: 0.5 (0.55); SOWS score, MEDIAN [2, 29]: 0.3; SOWS score, MINIMUM [2, 29]: 0.0; Mean SOWS score in the first 24 hours following drug discontinuation ([2]; patients with ≧4 weeks of dosing, p<0.01): 2.6
